Experimental data reported in patent US20240041042A1, “1-(PYRIDYL)-5-AZINYLPYRAZOLE DERIVATIVES, AND THEIR USE FOR CONTROL OF UNDESIRED PLANT GROWTH” (Bayer Aktiengesellschaft, priority 2020, published 2024).

Experiments:
Assay type in all cases: in vivo
Avena fatua (AVEFA) [1] = assay: Pre-emergence herbicidal action against AVEFA; details: 320 g/ha, visual scoring after about 3 weeks vs untreated controls
Outline: (§1)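 Pre-emergence soil-surface spray of compound, formulated as wettable powder or emulsion concentrate, in aqueous suspension or emulsion with 0.5% additive (600 l/ha; rate 320 g/ha or less). Activity rated visually after roughly 3 weeks in the greenhouse as a percentage of untreated controls, 0% meaning no difference.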

[2] = test system: Polygonum convolvulus (POLCO); assay: Pre-emergence herbicidal action against POLCO
Outline: as §1

Oryza sativa (ORYSA) = details: crop plant compatibility, 80 g/ha, effect in comparison to untreated controls
Outline: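 Foliar application at the one-leaf stage: WP/EC formulation, 0.5% additive, 600 l/ha water. Greenhouse-grown in sandy loam. Endpoint is visual % injury relative to untreated controls at about 3 weeks.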

[3] = test system: Verconica persica (VERPE); assay: Post-emergence herbicidal action against VERPE
Outline: (§2)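 Greenhouse plants sprayed at the one-leaf stage, 2–3 weeks after sowing, with WP or EC formulations plus 0.5% additive at 600 l/ha water. Activity rated visually after about 3 weeks versus untreated controls (100% = dead, 0% = like control), at 320 g/ha or lower.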

[4] = test system: Pharbitis purpurea (PHBPU); assay: Pre-emergence herbicidal action against PHBPU; details: dosage 320 g/ha
Outline: as §1

[5] = test system: Echinochloa crus-galli (ECHCG); assay: Post-emergence herbicidal action against ECHCG; details: dosage 320 g/ha
Outline: as §2

[6] = test system: Verconica persica (VERPE); assay: Pre-emergence herbicidal action against VERPE
Outline: as §1

[7] = test system: Amaranthus retroflexus (AMARE); assay: Post-emergence herbicidal action against AMARE
Outline: as §2

Lolium rigidum (LOLRI) [8] = assay: Pre-emergence herbicidal action against LOLRI; details: dosage 320 g/ha
Outline: as §1

[9] = test system: Amaranthus retroflexus (AMARE); assay: Pre-emergence herbicidal action against AMARE; details: visual scoring after about 3 weeks vs untreated controls
Outline: as §1

Setaria viridis (SETVI) [10] = assay: Pre-emergence herbicidal action against SETVI
Outline: as §1

[11] = test system: Alopecurus myosuroides (ALOMY); assay: Pre-emergence herbicidal action against ALOMY; details: scored visually after about 3 weeks, 100% = plants have died
Outline: as §1

Viola tricolor (VIOTR) [12] = assay: Pre-emergence herbicidal action against VIOTR; details: 320 g/ha, Viola tricolor
Outline: as §1

[13] = test system: Echinochloa crus-galli (ECHCG); assay: Pre-emergence herbicidal action against ECHCG; details: dosage 320 g/ha
Outline: as §1

[14] = test system: Alopecurus myosuroides (ALOMY); assay: Post-emergence herbicidal action against ALOMY; details: visual rating about 3 weeks after treatment vs untreated controls (100% = plants have died, 0% = like control plants)
Outline: as §2

Lolium rigidum (LOLRI) [15] = assay: Post-emergence herbicidal action against LOLRI; details: dosage 320 g/ha
Outline: as §2

Setaria viridis (SETVI) [16] = assay: Post-emergence herbicidal action against SETVI
Outline: as §2

[17] = test system: Matricaria inodora (MATIN); assay: Post-emergence herbicidal action against MATIN
Protocol: Seeds of monocotyledonous and dicotyledonous weeds and crop plants are placed in sandy loam in plastic or organic planting pots, covered with soil and cultivated in a greenhouse under controlled growth conditions. 2 to 3 weeks after sowing, the test plants are treated at the one-leaf stage. The compounds of the invention, formulated in the form of wettable powders (WP) or as emulsion concentrates (EC), are then sprayed onto the green parts of the plants as aqueous suspension or emulsion with addition of 0.5% additive at a water application rate of 600 l/ha (converted). After the test plants have been kept in the greenhouse under optimum growth conditions for about 3 weeks, the activity of the preparations is rated visually in comparison to untreated controls. For example, 100% activity=the plants have died, 0% activity=like control plants.
Tables B1 to B13 below show the effects of selected compounds of the general formula (I) according to Table 1 on various harmful plants and at an application rate corresponding to 320 g/ha or lower, which were obtained by the experimental procedure mentioned above. The appendices “a”, “b” and “c” give differentiation by dosage used with otherwise the same harmful plants tested.

[18] = test system: Matricaria inodora (MATIN); assay: Pre-emergence herbicidal action against MATIN; details: dosage 320 g/ha
Outline: as §1

Avena fatua (AVEFA) [19] = assay: Post-emergence herbicidal action against AVEFA; details: 320 g/ha, visual rating about 3 weeks after treatment
Outline: as §2

Viola tricolor (VIOTR) [20] = assay: Post-emergence herbicidal action against VIOTR; details: 320 g/ha
Outline: as §2

[21] = test system: Pharbitis purpurea (PHBPU); assay: Post-emergence herbicidal action against PHBPU
Outline: as §2

## CS(=O)(=O)CCOC(=O)COc1nn(-c2ccccn2)c(-c2ccc(F)nc2)c1Br [Example I-313]
Avena fatua (AVEFA) [1]
  Pre-emergence action against AVEFA in %: 90%
[2]; dosage 80 g/ha
  Pre-emergence action against POLCO in %: 80%
[2]; dosage 320 g/ha
  Pre-emergence action against POLCO in %: 80%
Oryza sativa (ORYSA)
  Post-emergence action against ORYSA in %: 10%
[3]; 320 g/ha, VERPE
  Post-emergence action against VERPE in %: 90%
[3]; dosage 80 g/ha
  Post-emergence action against VERPE in %: 90%
[4]
  Pre-emergence action against PHBPU in %: 80%
[5]
  Post-emergence action against ECHCG in %: 90%
[6]; dosage 80 g/ha
  Pre-emergence action against VERPE in %: 80%
[6]; dosage 320 g/ha
  Pre-emergence action against VERPE in %: 90%
[7]; 80 g/ha, visual rating about 3 weeks after treatment vs untreated controls (100% = plants have died, 0% = like control plants)
  Post-emergence action against AMARE in %: 80%
[7]; 320 g/ha, visual rating about 3 weeks after treatment
  Post-emergence action against AMARE in %: 90%
Lolium rigidum (LOLRI) [8]
  Pre-emergence action against LOLRI in %: 100%
[9]; 80 g/ha
  Pre-emergence action against AMARE in %: 90%
[9]; 320 g/ha
  Pre-emergence action against AMARE in %: 100%
Setaria viridis (SETVI) [10]; dosage 80 g/ha
  Pre-emergence action against SETVI in %: 100%
Setaria viridis (SETVI) [10]; dosage 320 g/ha
  Pre-emergence action against SETVI in %: 100%
[11]; 80 g/ha
  Pre-emergence action against ALOMY: 90%
[11]; 320 g/ha
  Pre-emergence action against ALOMY: 100%
Viola tricolor (VIOTR) [12]
  Pre-emergence action against VIOTR in %: 90%
[13]
  Pre-emergence action against ECHCG in %: 100%
[14]; 80 g/ha
  Post-emergence action against ALOMY in %: 90%
[14]; 320 g/ha
  Post-emergence action against ALOMY in %: 90%
Lolium rigidum (LOLRI) [15]
  Post-emergence action against LOLRI in %: 90%
Setaria viridis (SETVI) [16]; dosage 80 g/ha
  Post-emergence action against SETVI in %: 90%
Setaria viridis (SETVI) [16]; dosage 320 g/ha
  Post-emergence action against SETVI in %: 90%
[17]; dosage 80 g/ha
  Post-emergence action against MATIN in %: 80%
[17]; dosage 320 g/ha
  Post-emergence action against MATIN in %: 90%
[18]
  Pre-emergence action against MATIN in %: 90%
Avena fatua (AVEFA) [19]
  Post-emergence action against AVEFA in %: 80%
Viola tricolor (VIOTR) [20]
  Post-emergence action against VIOTR in %: 80%
[21]; dosage 80 g/ha
  Post-emergence action against PHBPU in %: 90%
[21]; dosage 320 g/ha
  Post-emergence action against PHBPU in %: 90%
